{"source": "paper PMC4691061", "about": "“Repositioning of Thiourea-Containing Drugs as Tyrosinase Inhibitors” (International Journal of Molecular Sciences, 2015)", "origin": "cited, not measured here", "biological_target": "tyrosinase", "conditions": "tyrosinase; read-out: IC50; cited from earlier work"}
{"smiles": "CCc1cc(C(N)=S)ccn1", "note": "[ethionamide]", "values": [{"measurement": "IC50", "value": 4, "unit": "µM"}]}
